We go through 17 compounds from patent US9642831B2, “Substituted chromanes and method of use” (AbbVie S.á.r.l., priority 2014, dated 2017).

The assay addresses F508delCFTR (Homo sapiens, UniProt P13569, DEL508-508). Description: Cell Surface Expression-Horse Radish Peroxidase (CSE-HRP) assay. The assay is classed as cell-based. Details: expressed in transfected cells; host or cells: CFBE41o- human lung derived epithelial cell line, doxycycline-inducible. The settings on record: CFBE4lo-F508delCFTR-HRP cells; for EC50: 18-24 hours at 33° C., 8-point curve, highest concentration 20 μM, luminescence readout; for Emax: maximum % activity at any tested concentration, normalized to on-plate positive control (3 μM Example 1). An excerpt: Cell Surface Expression-Horse Radish Peroxidase (CSE-HRP) Assay:
A cellular assay for measuring the F508delCFTR cell surface expression after correction with test compounds was developed in human lung derived epithelial cell line (CFBE4lo-) (Veit G et al, (2012) Mol Biol Cell. 23(21): 4188-4202). This was achieved by expressing the F508delCFTR mutation along with a horseradish peroxidase (HRP) in the fourth exofacial loop and then measuring the HRP activity using luminescence readout from these cells, CFBE4lo-F508delCFTR-HRP, that were incubated overnight with the test corrector compounds. Briefly, for this primary assay, the CFBE4lo-F508delCFTR-HRP cells were plated in 384-well plates (Greiner Bio-one; Cat 781080) at 4,000 cells/well along with 0.5 μg/mL doxycycline to induce the F508delCFTR-HRP expression and further incubated at 37° C., 5% CO2 for 72 hours. The test compounds were then added at the required concentrations and further incubated for 18-24 hours at 33° C. The highest concentration tested was 20 μM with an 8-point concentration response curve using a 3-fold dilution. Three replicate plates were run to determine one EC50. All plates contained negative controls (dimethyl sulfoxide, DMSO) and positive controls (3 μM of 3-[(2R,4R)-4-({[1-(2,2-difluoro-1,3-benzodioxol-5-yl)cyclopropyl]carbonyl}amino)-7-methoxy-3,4-dihydro-2H-chromen-2-yl]benzoic acid) as well as on-plate concentration response of the positive control. Post incubation, the plates were washed 5× times with Dulbecco's phosphate buffered saline (DPBS), followed by the addition of the HRP substrate, luminol (50 μL), and measuring the HRP activity using luminescence readout on EnVision® Multilabel Plate Reader (Perkin Elmer; product number 2104-0010). The raw counts from the experiment are analyzed using Accelrys® Assay Explorer v3.3.
Z′ greater than 0.5 was used as passing quality control criteria for the plates.
The Z′ is defined as: 1−[3*SDPositive Control+3*SDNegative Control/Absolute(MeanPositive Control−MeanNegative Control)] wherein “SD” is standard deviation.
The % activity measured at each of the 8 test concentrations of the test compound was normalized to the on-plate positive control using the following formula: % activity=[(test compound response−DMSO response)/(positive control response−DMSO response)]*100
The maximum % activity achieved for the test compound at any tested concentration is presented in Table 1 along with the EC50 calculated using the following general sigmoidal curve with variable Hill slope equation (described as Model 42 in the Accelrys® Assay Explorer v3.3 software): y=(a−d)/(1+(x/c)^b)+d
General sigmoidal curve with concentration, response, top, bottom, EC50 and Hill slope.
This model describes a sigmoidal curve with an adjustable baseline, a. The equation can be used to fit curves where response is either increasing or decreasing with respect to the independent variable, “x”.
“x” is a concentration of drug under test.
“a” is the maximum response, and “d” is the minimum response
“c” is the inflection point (EC50) for the curve. That is, “y” is halfway between the lower and upper asymptotes when x=c.
“b” is the slope-factor or Hill coefficient. The sign of b is positive when the response increases with increasing dose and is negative when the response decreases with increasing dose (inhibition).

The EC50 is the concentration giving half of the maximal effect. Read a low EC50 as an effect from little substance. As usually defined, the Emax is the maximal effect, on the per cent scale that the assay sets.

SMILES strings stand for the structures.

F508delCFTR, sequence (P13569 with tags, fused parts or gaps DEL508-508): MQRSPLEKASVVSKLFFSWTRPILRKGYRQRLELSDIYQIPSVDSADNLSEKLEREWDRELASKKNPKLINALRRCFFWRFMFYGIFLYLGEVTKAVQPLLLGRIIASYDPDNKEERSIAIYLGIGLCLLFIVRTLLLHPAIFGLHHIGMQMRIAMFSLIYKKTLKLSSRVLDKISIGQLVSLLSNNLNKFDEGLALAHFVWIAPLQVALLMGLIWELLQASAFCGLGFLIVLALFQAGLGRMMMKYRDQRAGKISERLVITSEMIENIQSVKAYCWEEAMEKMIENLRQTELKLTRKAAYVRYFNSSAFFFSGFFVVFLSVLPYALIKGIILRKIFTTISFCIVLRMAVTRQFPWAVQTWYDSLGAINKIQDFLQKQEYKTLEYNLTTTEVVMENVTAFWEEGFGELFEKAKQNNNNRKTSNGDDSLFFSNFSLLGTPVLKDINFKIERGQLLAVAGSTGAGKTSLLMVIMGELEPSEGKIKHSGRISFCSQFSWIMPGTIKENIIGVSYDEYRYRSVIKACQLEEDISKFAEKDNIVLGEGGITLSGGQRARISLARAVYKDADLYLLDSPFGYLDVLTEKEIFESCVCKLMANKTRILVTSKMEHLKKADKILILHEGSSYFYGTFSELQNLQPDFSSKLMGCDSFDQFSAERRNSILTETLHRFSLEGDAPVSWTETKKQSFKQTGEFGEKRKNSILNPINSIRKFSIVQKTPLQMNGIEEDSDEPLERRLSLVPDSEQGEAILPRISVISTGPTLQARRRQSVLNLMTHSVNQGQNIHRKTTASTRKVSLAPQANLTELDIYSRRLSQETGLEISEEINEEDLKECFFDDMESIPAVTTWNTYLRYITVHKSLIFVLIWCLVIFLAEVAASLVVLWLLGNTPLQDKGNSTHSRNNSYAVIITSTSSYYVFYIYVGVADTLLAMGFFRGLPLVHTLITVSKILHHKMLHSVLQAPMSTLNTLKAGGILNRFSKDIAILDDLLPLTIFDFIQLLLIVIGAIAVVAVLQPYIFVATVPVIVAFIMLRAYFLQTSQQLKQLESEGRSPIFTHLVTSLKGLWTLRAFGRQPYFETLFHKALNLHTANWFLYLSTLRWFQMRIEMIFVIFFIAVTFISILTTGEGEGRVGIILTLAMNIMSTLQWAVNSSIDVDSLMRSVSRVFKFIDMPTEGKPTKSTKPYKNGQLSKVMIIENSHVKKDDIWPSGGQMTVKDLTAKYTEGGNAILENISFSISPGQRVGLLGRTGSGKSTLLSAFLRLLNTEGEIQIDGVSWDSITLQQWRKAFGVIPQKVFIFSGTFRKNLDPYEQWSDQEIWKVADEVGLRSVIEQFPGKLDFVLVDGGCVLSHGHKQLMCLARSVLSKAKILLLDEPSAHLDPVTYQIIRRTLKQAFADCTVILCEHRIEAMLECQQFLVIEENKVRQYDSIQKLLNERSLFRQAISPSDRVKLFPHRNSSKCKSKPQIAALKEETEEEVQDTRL

`COC(=O)c1cccc(C2CC(NC(=O)C3(c4ccc5c(c4)OC(F)(F)O5)CC3)c3ccc(OC)nc3O2)c1` (mixture of isomers) [Example 37, methyl 3-[4-({[1-(2,2-difluoro-1,3-benzodioxol-5-yl)cyclopropyl]carbonyl}amino)-7-methoxy-3,4-dihydro-2H-pyrano[2,3-b]pyridin-2-yl]benzoate] displayed an EC50 of 3.05 µM and a maximal effect (Emax) of 88%.
In turn, `COc1ccc2c(c1)OC(C1CN(C(=O)OC(C)(C)C)C1)CC2NC(=O)C1(c2ccc3c(c2)OC(F)(F)O3)CC1` (mixture of isomers) [Example 115, tert-butyl 3-[4-({[1-(2,2-difluoro-1,3-benzodioxol-5-yl)cyclopropyl]carbonyl}amino)-7-methoxy-3,4-dihydro-2H-chromen-2-yl]azetidine-1-carboxylate] yielded a concentration for a half-maximal effect (EC50) of 1.94 µM and an Emax of 77%.
In the same order, the values of `COc1ccc2c(c1)OC(C1CN(S(C)(=O)=O)C1)CC2NC(=O)C1(c2ccc3c(c2)OC(F)(F)O3)CC1` (mixture of isomers) [Example 117, 1-(2,2-difluoro-1,3-benzodioxol-5-yl)-N-{7-methoxy-2-[1-(methylsulfonyl)azetidin-3-yl]-3,4-dihydro-2H-chromen-4-yl}cyclopropanecarboxamide] are 6.01 µM and 82%.
In turn, `COc1ccc2c(c1)O[C@@H](c1cccnc1)C[C@@H]2NC(=O)C1(c2ccc3c(c2)OC(F)(F)O3)CC1` (racemic) [Example 22, rac-1-(2,2-difluoro-1,3-benzodioxol-5-yl)-N-[(2R,4S)-7-methoxy-2-(pyridin-3-yl)-3,4-dihydro-2H-chromen-4-yl]cyclopropanecarboxamide] came in with a 50% effective concentration (EC50) of 1.77 µM and an Emax of 109%.
Taken in the same sequence, the figures for `COc1ccc2c(n1)O[C@@H](c1cccc(C(=O)O)c1)C[C@@H]2NC(=O)C1(c2ccc3c(c2)OC(F)(F)O3)CC1` (racemic) [Example 29, rac-3-[(2R,4S)-4-({[1-(2,2-difluoro-1,3-benzodioxol-5-yl)cyclopropyl]carbonyl}amino)-7-methoxy-3,4-dihydro-2H-pyrano[2,3-b]pyridin-2-yl]benzoic acid] were 5.71 µM and 106%.
Taken in the same sequence, the figures for `COC(=O)c1cccc([C@H]2C[C@@H](NC(=O)C3(c4ccc5c(c4)OC(F)(F)O5)CC3)c3ccc(OC)nc3O2)c1` (racemic) [Example 30, methyl rac-3-[(2R,4R)-4-({[1-(2,2-difluoro-1,3-benzodioxol-5-yl)cyclopropyl]carbonyl}amino)-7-methoxy-3,4-dihydro-2H-pyrano[2,3-b]pyridin-2-yl]benzoate] were 1.88 µM and 78%.
In the same order, the values of `O=C(O)c1cccc([C@H]2C[C@@H](NC(=O)C3(c4ccc5c(c4)OC(F)(F)O5)CC3)c3cccnc3O2)c1` (racemic) [Example 31, rac-3-[(2R,4R)-4-({[1-(2,2-difluoro-1,3-benzodioxol-5-yl)cyclopropyl]carbonyl}amino)-3,4-dihydro-2H-pyrano[2,3-b]pyridin-2-yl]benzoic acid] are 10.7 µM and 21%.
For `O=C(O)c1cccc([C@H]2C[C@H](NC(=O)C3(c4ccc5c(c4)OC(F)(F)O5)CC3)c3cccnc3O2)c1` (racemic) [Example 32, rac-3-[(2R,4S)-4-({[1-(2,2-difluoro-1,3-benzodioxol-5-yl)cyclopropyl]carbonyl}amino)-3,4-dihydro-2H-pyrano[2,3-b]pyridin-2-yl]benzoic acid], the concentration for a half-maximal effect (EC50) was ≥ 20 µM and the maximal response (Emax) was found to be 16%.
In the same order, the values of `COC(=O)c1cccc([C@H]2C[C@@H](NC(=O)C3(c4ccc5c(c4)OC(F)(F)O5)CC3)c3cccnc3O2)c1` (racemic) [Example 33, rac-methyl 3-[(2R,4R)-4-({[1-(2,2-difluoro-1,3-benzodioxol-5-yl)cyclopropyl]carbonyl}amino)-3,4-dihydro-2H-pyrano[2,3-b]pyridin-2-yl]benzoate] are 7.65 µM and 38%.
On to `COC(=O)c1cccc([C@H]2C[C@H](NC(=O)C3(c4ccc5c(c4)OC(F)(F)O5)CC3)c3cccnc3O2)c1` (racemic) [Example 34, rac-methyl 3-[(2R,4S)-4-({[1-(2,2-difluoro-1,3-benzodioxol-5-yl)cyclopropyl]carbonyl}amino)-3,4-dihydro-2H-pyrano[2,3-b]pyridin-2-yl]benzoate], for which the EC50 was ≥ 20 µM and the Emax was determined as 15%.
Consider `COc1ccc2c(c1)O[C@@H](C1CC1)C[C@H]2NC(=O)C1(c2ccc3c(c2)OC(F)(F)O3)CC1` (racemic) [Example 40, rac-N-[(2R,4R)-2-cyclopropyl-7-methoxy-3,4-dihydro-2H-chromen-4-yl]-1-(2,2-difluoro-1,3-benzodioxol-5-yl)cyclopropanecarboxamide], for which the EC50 came to 2.68 µM and the maximum response (Emax) came out at 107%.
Taken in the same sequence, the figures for `COc1ccc2c(c1)O[C@@H](C1CC1)C[C@@H]2NC(=O)C1(c2ccc3c(c2)OC(F)(F)O3)CC1` (racemic) [Example 41, rac-N-[(2R,4S)-2-cyclopropyl-7-methoxy-3,4-dihydro-2H-chromen-4-yl]-1-(2,2-difluoro-3-benzodioxol-5-yl)cyclopropanecarboxamide] were 2.58 µM and 73%.
In the same order, the values of `COc1ccc2c(c1)O[C@@H](c1cccnc1)C[C@H]2NC(=O)C1(c2ccc3c(c2)OC(F)(F)O3)CC1` (racemic) [Example 57, rac-1-(2,2-difluoro-1,3-benzodioxol-5-yl)-N-[(2R,4R)-7-methoxy-2-(pyridin-3-yl)-3,4-dihydro-2H-chromen-4-yl]cyclopropanecarboxamide] are 1.69 µM and 112%.
For `COC(=O)c1cccc([C@H]2C[C@@H](NC(=O)C3(c4ccc5c(c4)OC(F)(F)O5)CC3)c3ccc(Cl)nc3O2)c1` (racemic) [Example 112, methyl rac-3-[(2R,4R)-7-chloro-4-({[1-(2,2-difluoro-1,3-benzodioxol-5-yl)cyclopropyl]carbonyl}amino)-3,4-dihydro-2H-pyrano[2,3-b]pyridin-2-yl]benzoate], the EC50 is ≥ 20 µM and the Emax amounted to 5%.
On to `COC(=O)c1cccc([C@H]2C[C@@H](NC(=O)C3(c4ccc5c(c4)OC(F)(F)O5)CC3)c3ccc(F)nc3O2)c1` (racemic) [Example 113, methyl rac-3-[(2R,4R)-4-({[1-(2,2-difluoro-1,3-benzodioxol-5-yl)cyclopropyl]carbonyl}amino)-7-fluoro-3,4-dihydro-2H-pyrano[2,3-b]pyridin-2-yl]benzoate], for which the EC50 was found to be 3.55 µM and the maximal effect (Emax) amounted to 49%.
Taken in the same sequence, the figures for `O=C(O)c1cccc([C@H]2C[C@@H](NC(=O)C3(c4ccc5c(c4)OC(F)(F)O5)CC3)c3ccc(Cl)nc3O2)c1` (racemic) [Example 114, rac-3-[(2R,4R)-7-chloro-4-({[1-(2,2-difluoro-1,3-benzodioxol-5-yl)cyclopropyl]carbonyl}amino)-3,4-dihydro-2H-pyrano[2,3-b]pyridin-2-yl]benzoic acid] were 4.76 µM and 61%.
Taken in the same sequence, the figures for `COC(=O)c1cccc([C@H]2C[C@H](NC(=O)C3(c4ccc5c(c4)OC(F)(F)O5)CC3)c3ccc(F)nc3O2)c1` (racemic) [Example 118, methyl rac-3-[(2R,4S)-4-({[1-(2,2-difluoro-1,3-benzodioxol-5-yl)cyclopropyl]carbonyl}amino)-7-fluoro-3,4-dihydro-2H-pyrano[2,3-b]pyridin-2-yl]benzoate] were 8.15 µM and 25%.
